Data from patent publication US4481192A, “Acid-protease inhibiting peptide derivatives” (SANOFI, priority 1982, dated 1984).
Where two headings read alike, the source gives them in different places. Non-standard residues stand in square brackets, D forms with d. Residues, ends and D or L forms follow the SMILES beside them. *: point of attachment. X1 = COC(=O)C[C@@H](O)[C@H](CC(C)C)N*; Benzenesulfonyl = O=S(=O)(c1ccccc1)*; Benzylsulfonyl = O=S(=O)(Cc1ccccc1)*; Sta = CC(C)C[C@H](N)[C@@H](O)CC(=O)O; Butanoyl(3,3-Me2) = CC(C)(C)CC(=O)*; Hydrocinnamoyl = O=C(CCc1ccccc1)*; X2 = O=C(NCCS(=O)(=O)*)OCc1ccccc1; Isovaleryl = CC(C)CC(=O)*; Nle = CCCC[C@H](N)C(=O)O; Nva = CCC[C@H](N)C(=O)O; Cbz = O=C(OCc1ccccc1)*; Boc = CC(C)(C)OC(=O)*

Experiments:
[1] = target: T1, human plasma renin activity (Homo sapiens, UniProt P00797); test: Inhibition of the human plasma renin activity (P.R.A.); assay type: biochemical; settings: 37° C., pool of human plasma
T1 construct: the human plasma contain and the substrate: angiotensinogen, and the enzyme: renin; from tissue; host or cells: pool of human plasma
T1 sequence (P00797 67-406): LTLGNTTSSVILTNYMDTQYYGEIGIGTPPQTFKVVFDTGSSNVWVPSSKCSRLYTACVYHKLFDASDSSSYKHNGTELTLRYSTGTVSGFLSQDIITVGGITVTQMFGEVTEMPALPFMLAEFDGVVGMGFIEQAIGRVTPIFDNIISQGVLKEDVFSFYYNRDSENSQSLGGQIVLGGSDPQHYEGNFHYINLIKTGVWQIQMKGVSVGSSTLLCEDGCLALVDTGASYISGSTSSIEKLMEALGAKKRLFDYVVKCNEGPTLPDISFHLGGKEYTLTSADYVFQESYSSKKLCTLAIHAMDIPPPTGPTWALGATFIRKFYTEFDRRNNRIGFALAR
Method: The angiotensin I released during the reaction (the human plasma contain and the substrate: angiotensinogen, and the enzyme: renin) is measured by radioimmunological determination using a kit.
Of course, an inhibitor of the enzyme for conversion of the PMSF (phenylmethylsulphonyl fluoride) is added to the incubation medium.
Two types of experiments were carried out:
one at pH 6, which is the optimum pH for the enzyme reaction with human renin (maleate buffer, incubation: 30 minutes), and
the other at pH 7.4, which is the physiological pH (phosphate buffer, incubation: 60 minutes).
(§1) A 10^-3 M stock solution of the peptide is made up in a mixture containing equal volumes of a solution A (19 ml of methanol+1 ml of acetic acid) and a solution B (4 ml of methanol+2 ml of sodium hydroxide solution).
(§2) The subsequent dilutions of the peptide are then prepared in the appropriate buffer in accordance with the procedures described above.

porcine pepsin = porcine pepsin (Sus scrofa, UniProt P00791); test: Inhibition of porcine pepsin; assay type: biochemical; settings: pH 2, substrate bovine haemoglobin, 37° C.
Method: The method used is that of TAKAAKI AOYAGI (J. Antibiotics, 24, pages 687-694, 1971). The substrate used is bovine haemoglobin and the enzyme is porcine pepsin.
0.5% strength haemoglobin is hydrolysed with pepsin (1 mcg/ml) at 37° C. in 0.02M KCl-HCl buffer at pH 2.
Preincubation takes place for 3 minutes, followed by incubation for 25 minutes. After precipitation of the proteins with 1.7M perchloric acid, the optical density of the supernatant is determined on a spectrophotometer at 280 nm.
The results are expressed as the percentage inhibition of the maximum optical density obtained in the absence of inhibitor. They are also expressed as an IC50.
as §1, §2

[2] = pH 6, maleate buffer, incubation 30 minutes, read-out: INHIBITION OF HUMAN P.R.A. (IC50) pH 6
[3] = pH 7.4, phosphate buffer, incubation 60 minutes, read-out: INHIBITION OF HUMAN P.R.A. (IC50) pH 7.4

Sequence of porcine pepsin (P00791 60-385): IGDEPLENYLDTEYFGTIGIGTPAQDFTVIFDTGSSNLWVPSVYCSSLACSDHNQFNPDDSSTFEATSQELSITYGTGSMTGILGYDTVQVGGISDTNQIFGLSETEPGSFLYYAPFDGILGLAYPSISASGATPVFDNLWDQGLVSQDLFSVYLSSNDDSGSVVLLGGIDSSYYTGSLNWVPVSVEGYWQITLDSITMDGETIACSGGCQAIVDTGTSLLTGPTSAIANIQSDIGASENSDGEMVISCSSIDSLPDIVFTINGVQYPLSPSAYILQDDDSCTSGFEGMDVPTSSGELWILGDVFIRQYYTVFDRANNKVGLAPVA

Row | SMILES | IC50 [1, 2] [nM] | IC50 [1, 3] [nM] | IC50 (porcine pepsin) [nM]
1 | CC(C)C[C@H](NC(=O)[C@H](C)NC(=O)C[C@H](O)[C@H](CC(C)C)NC(=O)[C@H](Cc1ccccc1)NC(=O)[C@H](Cc1ccccc1)NC(=O)OCc1ccccc1)[C@@H](O)CC(=O)O [SR 41225, Z--Phe--Phe--Sta--Ala--Sta--OH] (Cbz-FF[Sta]A[Sta]-OH) | 70 | 1000 | 90
2 | COC(=O)C[C@H](O)[C@H](CC(C)C)NC(=O)[C@H](C)NC(=O)C[C@H](O)[C@H](CC(C)C)NC(=O)[C@H](Cc1ccccc1)NC(=O)[C@H](Cc1ccccc1)NC(=O)OCc1ccccc1 [SR 41320, Z--Phe--Phe--Sta--Ala--Sta--OMe] (Cbz-FF[Sta]A[Sta]-OMe) | 17 | 3500 | 30
3 | COC(=O)C[C@H](O)[C@H](CC(C)C)NC(=O)[C@H](C)NC(=O)C[C@H](O)[C@H](CC(C)C)NC(=O)[C@H](Cc1c[nH]c2ccccc12)NC(=O)[C@H](Cc1ccccc1)NC(=O)OCc1ccccc1 [SR 41416, Z Phe--Trp--Sta--Ala--Sta--OMe] (Cbz-FW[Sta]A[Sta]-OMe) | 80 | 1400 | 65
4 | COC(=O)C[C@H](O)[C@H](CC(C)C)NC(=O)[C@H](C)NC(=O)C[C@H](O)[C@H](CC(C)C)NC(=O)[C@@H](NC(=O)[C@H](Cc1ccc(O)cc1)NC(=O)OCc1ccccc1)C(C)C [SR 41476, Z--Tyr--Val--Sta--Ala--Sta--OMe] (Cbz-YV[Sta]A[Sta]-OMe) | 170 | 2200 | 24
5 | COC(=O)C[C@H](O)[C@H](CC(C)C)NC(=O)[C@H](C)NC(=O)C[C@H](O)[C@H](CC(C)C)NC(=O)[C@H](Cc1c[nH]cn1)NC(=O)[C@H](Cc1ccccc1)NS(=O)(=O)CCNC(=O)OCc1ccccc1 [SR 41748, Z--Tau--Phe--His--Sta--Ala--Sta--OCH3] (X2-FH[Sta]A[Sta]-OMe) | 2.2 | 110 | 620
6 | COC(=O)C[C@H](O)[C@H](CC(C)C)NC(=O)[C@H](C)NC(=O)C[C@H](O)[C@H](CC(C)C)NC(=O)[C@H](Cc1ccccc1)NC(=O)[C@H](Cc1ccccc1)NC(=O)CCc1ccccc1 [SR 41768, C6 H5 CH2 CH2 CO--Phe--Phe--Sta--Ala--Sta--OMe] (Hydrocinnamoyl-FF[Sta]A[Sta]-OMe) | 50 | 1000 | 42
7 | COC(=O)C[C@H](O)[C@H](CC(C)C)NC(=O)[C@H](C)NC(=O)C[C@H](O)[C@H](CC(C)C)NC(=O)[C@H](Cc1ccccc1)NC(=O)[C@H](Cc1ccccc1)NS(=O)(=O)c1ccccc1 [SR 41938, C6 H5 SO2 --Phe--Phe--Sta--Ala--Sta--OCH3] (Benzenesulfonyl-FF[Sta]A[Sta]-OMe) | 1.6 | 440 | 63
8 | COC(=O)C[C@H](O)[C@H](CC(C)C)NC(=O)[C@H](C)NC(=O)C[C@H](O)[C@H](CC(C)C)NC(=O)[C@H](Cc1ccccc1)NC(=O)[C@H](Cc1ccccc1)NS(=O)(=O)Cc1ccccc1 [SR 41939, C6 H5 CH2 SO2 --Phe--Phe--Sta--Ala--Sta--OCH3] (Benzylsulfonyl-FF[Sta]A[Sta]-OMe) | 17 | 880 | 36
9 | COC(=O)C[C@H](O)[C@H](CC(C)C)NC(=O)[C@H](C)NC(=O)C[C@H](O)[C@H](CC(C)C)NC(=O)[C@H](CCCCNC(=O)OCc1ccccc1)NC(=O)[C@H](Cc1ccccc1)NC(=O)CC(C)C [SR 42130, iVa--Phe--Lys(Z)--Sta--Ala--Sta--OMe] (Isovaleryl-FK(Cbz)[Sta]A[Sta]-OMe) | 52 | 2600 | 27

More lines, now with the values ahead:

Row | IC50 [1, 2] [nM] | IC50 [1, 3] [nM] | IC50 (porcine pepsin) [nM] | SMILES
10 |  |  | 47 | COC(=O)C[C@H](O)[C@H](CC(C)C)NC(=O)[C@H](C)NC(=O)C[C@H](O)[C@H](CC(C)C)NC(=O)[C@@H](NC(=O)[C@@H](Cc1ccccc1)NC(=O)OC(C)(C)C)C(C)C [SR 41377, Boc--(D)Phe--Val--Sta--Ala--Sta--OCH3] (Boc-[dF]V[Sta]A[Sta]-OMe)
11 | 35 | 1000 | 38 | CC[C@H](C)[C@H](NC(=O)[C@H](Cc1ccccc1)NC(=O)OCc1ccccc1)C(=O)N[C@@H](CC(C)C)[C@@H](O)CC(=O)N[C@@H](C)C(=O)N[C@@H](CC(C)C)[C@@H](O)CC(=O)OC [SR 41477, Z--Phe--ILe--Sta--Ala--Sta--OMe] (Cbz-FI[Sta]A[Sta]-OMe)
12 | 260 | 4000 | 22 | CC(C)C[C@H](NC(=O)[C@H](C)NC(=O)C[C@H](O)[C@H](CC(C)C)NC(=O)[C@@H](NC(=O)[C@@H](Cc1ccccc1)NC(=O)OC(C)(C)C)C(C)C)[C@@H](O)CC(=O)O [SR 41491, Boc--(D)Phe--Val--Sta--Ala--Sta--OH] (Boc-[dF]V[Sta]A[Sta]-OH)
13 | 950 |  | 480 | COC(=O)C[C@H](O)[C@H](CC(C)C)NC(=O)[C@H](C)NC(=O)C[C@H](O)[C@H](CC(C)C)NC(=O)[C@H](Cc1ccccc1)NC(=O)[C@@H](Cc1ccccc1)NC(=O)OC(C)(C)C [SR 41518, Boc--(D)Phe--Phe--Sta--Ala--Sta--OMe] (Boc-[dF]F[Sta]A[Sta]-OMe)
14 | 12 | 310 | 42 | COC(=O)C[C@H](O)[C@H](CC(C)C)NC(=O)[C@H](C)NC(=O)C[C@H](O)[C@H](CC(C)C)NC(=O)[C@H](Cc1ccccc1)NC(=O)[C@H](Cc1ccccc1)NC(=O)CC(C)C [SR 41764, iVa--Phe--Phe--Sta--Ala--Sta--OMe] (Isovaleryl-FF[Sta]A[Sta]-OMe)
15 | 0.33 | 75 | 8 | COC(=O)C[C@H](O)[C@H](CC(C)C)NC(=O)[C@H](C)NC(=O)C[C@H](O)[C@H](CC(C)C)NC(=O)[C@H](CC(C)C)NC(=O)[C@H](Cc1ccccc1)NC(=O)CC(C)C [SR 41765, iVa--Phe--Leu--Sta--Ala--Sta--OMe] (Isovaleryl-FL[Sta]A[Sta]-OMe)
16 | 14 | 420 | 58 | COC(=O)C[C@@H](O)[C@H](CC(C)C)NC(=O)[C@H](C)NC(=O)C[C@H](O)[C@H](CC(C)C)NC(=O)[C@H](Cc1ccccc1)NC(=O)[C@H](Cc1ccccc1)NC(=O)CC(C)C [SR 41766, iVa--Phe--Phe--Sta--Ala--isoSta--OMe] (Isovaleryl-FF[Sta]A-X1)
17 | 0.76 | 260 | 13 | CCC[C@H](NC(=O)[C@H](Cc1ccccc1)NC(C)=O)C(=O)N[C@@H](CC(C)C)[C@@H](O)CC(=O)N[C@@H](C)C(=O)N[C@@H](CC(C)C)[C@@H](O)CC(=O)OC [SR 41994, Ac--Phe--Nva--Sta--Ala--Sta--OMe] (Ac-F[Nva][Sta]A[Sta]-OMe)
18 | 0.03 | 42 | 16 | CCC[C@H](NC(=O)[C@H](Cc1ccccc1)NC(=O)CC(C)C)C(=O)N[C@@H](CC(C)C)[C@@H](O)CC(=O)N[C@@H](C)C(=O)N[C@@H](CC(C)C)[C@@H](O)CC(=O)OC [SR 41995, iVa--Phe--Nva--Sta--Ala--Sta--OMe] (Isovaleryl-F[Nva][Sta]A[Sta]-OMe)
19 | 0.0011 | 51 |  | CCC[C@H](NC(=O)[C@H](Cc1ccccc1)NC(=O)OC(C)(C)C)C(=O)N[C@@H](CC(C)C)[C@@H](O)CC(=O)N[C@@H](C)C(=O)N[C@@H](CC(C)C)[C@@H](O)CC(=O)OC [SR 41996, Boc--Phe--Nva--Sta--Ala--Sta--OMe] (Boc-F[Nva][Sta]A[Sta]-OMe)
20 | 110 |  | 73 | CC[C@H](C)[C@H](NC(=O)OC(C)(C)C)C(=O)N[C@@H](Cc1c[nH]cn1)C(=O)N[C@@H](CC(C)C)[C@@H](O)CC(=O)N[C@@H](C)C(=O)N[C@@H](CC(C)C)[C@@H](O)CC(=O)OC [SR 42019, Boc--Ile--His--Sta--Ala--Sta--OMe] (Boc-IH[Sta]A[Sta]-OMe)
21 |  |  | 19 | CCCC[C@H](NC(=O)[C@H](Cc1ccccc1)NC(=O)CC(C)C)C(=O)N[C@@H](CC(C)C)[C@@H](O)CC(=O)N[C@@H](C)C(=O)N[C@@H](CC(C)C)[C@@H](O)CC(=O)O [SR 42128, iVa--Phe--Nle--Sta--Ala--Sta--OH] (Isovaleryl-F[Nle][Sta]A[Sta]-OH)
22 | 26 | 480 | 27 | COC(=O)C[C@H](O)[C@H](CC(C)C)NC(=O)[C@H](C)NC(=O)C[C@H](O)[C@H](CC(C)C)NC(=O)[C@H](Cc1ccccc1)NC(=O)[C@H](Cc1ccccc1)NC(=O)CC(C)(C)C [SR 42256, t--BuAc--Phe--Phe--Sta--Ala--Sta--OMe] ({Butanoyl(3,3-Me2)}-FF[Sta]A[Sta]-OMe)
